Results taken from the supplement of paper PMC13380429.

Tests used:
Details in all cases: 72 h
[1] = system: Caco-2; assay: cell viability relative to DMSO; higher = less toxic
[2] = system: Calu-3; assay: as above
[3] = system: HepG2; assay: as above
[4] = system: U2OS; assay: as above
[5] = system: Vero E6; assay: as above
[6] = system: Caco-2; assay: relative viability EC50 (midpoint between 100% and the lowest measured viability); higher = less toxic
[7] = system: Calu-3; assay: as above
[8] = system: HepG2; assay: as above
[9] = system: U2OS; assay: as above
[10] = system: Vero E6; assay: as above
[11] = system: Caco-2; assay: drug sensitivity score (DSS) for viability; higher = more toxic; extreme values may be limits of the assay
[12] = system: Calu-3; assay: as above
[13] = system: HepG2; assay: as above
[14] = system: U2OS; assay: as above
[15] = system: Vero E6; assay: as above

Compound | cell viability ([1]; 1 nM) [%] | cell viability ([1]; 10 nM) [%] | cell viability ([1]; 100 nM) [%] | cell viability ([1]; 1000 nM) [%] | cell viability ([1]; 10000 nM) [%] | cell viability ([2]; 1 nM) [%] | cell viability ([2]; 10 nM) [%] | cell viability ([2]; 100 nM) [%] | cell viability ([2]; 1000 nM) [%] | cell viability ([2]; 10000 nM) [%] | cell viability ([3]; 1 nM) [%] | cell viability ([3]; 10 nM) [%] | cell viability ([3]; 100 nM) [%] | cell viability ([3]; 1000 nM) [%] | cell viability ([3]; 10000 nM) [%] | cell viability ([4]; 1 nM) [%] | cell viability ([4]; 10 nM) [%] | cell viability ([4]; 100 nM) [%] | cell viability ([4]; 1000 nM) [%] | cell viability ([4]; 10000 nM) [%] | cell viability ([5]; 1 nM) [%] | cell viability ([5]; 10 nM) [%] | cell viability ([5]; 100 nM) [%] | cell viability ([5]; 1000 nM) [%] | cell viability ([5]; 10000 nM) [%] | relative viability EC50 [6] [µM] | relative viability EC50 [7] [µM] | relative viability EC50 [8] [µM] | relative viability EC50 [9] [µM] | relative viability EC50 [10] [µM] | drug sensitivity score [11] | drug sensitivity score [12] | drug sensitivity score [13] | drug sensitivity score [14] | drug sensitivity score [15]
CCn1ccnc1CC1COc2ccccc2O1 (stereo not given) [imiloxan] | 106 | 87.6 | 92.9 | 104 | 102 | 97.9 | 98.5 | 99.7 | 107 | 94.4 | 90.6 | 91.6 | 94.5 | 93.2 | 116 | 101 | 98.4 | 99.2 | 101 | 104 | 92.5 | 99.8 | 95.9 | 90.7 | 102 | > 10 | > 10 | > 10 | > 10 | > 10 | 0 | 0 | 0 | 0 | 0
Cc1c(-c2ccccc2)oc2c(C(=O)OCCN3CCCCC3)cccc2c1=O [flavoxate] | 89.1 | 91.5 | 92.9 | 97.1 | 108 | 94.9 | 91.9 | 91.7 | 105 | 110 | 102 | 99.2 | 104 | 98.3 | 96.1 | 97.3 | 101 | 93 | 104 | 98.8 | 98.1 | 91.7 | 96.2 | 94.1 | 107 | > 10 | > 10 | > 10 | > 10 | > 10 | 0 | 0 | 0 | 0 | 0
CC1C=CC=CCCC=CC=CC=CC=CC(OC2OC(C)C(O)C(N)C2O)CC2OC(O)(CC(O)C(O)CCC(O)CC(O)CC(O)CC(=O)OC(C)C(C)C1O)CC(O)C2C(=O)O (stereo not given) [nystatin] | 98.4 | 98.5 | 97.4 | 97.4 | 103 | 106 | 84.5 | 94.6 | 104 | 109 | 96.7 | 101 | 98.7 | 96.8 | 110 | 102 | 99.3 | 99 | 102 | 104 | 92.9 | 93.6 | 94.7 | 96.1 | 107 | > 10 | > 10 | > 10 | > 10 | > 10 | 0 | 0 | 0 | 0 | 0
C[C@@H]1C[C@H]2[C@@H]3C[C@H](F)C4=CC(=O)C=C[C@]4(C)[C@@]3(F)[C@@H](O)C[C@]2(C)[C@@]1(O)C(=O)COC(=O)C(C)(C)C [flumethasone-pivalate] | 121 | 103 | 122 | 94.9 | 89 | 113 | 102 | 106 | 94.3 | 100 | 82.4 | 100 | 87.4 | 103 | 82.6 | 106 | 102 | 102 | 97.6 | 101 | 96.6 | 95.3 | 101 | 96.3 | 84.5 | > 10 | > 10 | > 10 | > 10 | > 10 | 0.1 | 0 | 0.3 | 0 | 0.6
O=C(O)CCCN1C(=O)c2cccc3cccc(c23)C1=O [isodibut] | 105 | 90.9 | 93.6 | 98.6 | 95.4 | 99.1 | 97.8 | 96.9 | 94.8 | 114 | 96.1 | 95.8 | 104 | 105 | 98.9 | 99.3 | 96.6 | 97.7 | 97.6 | 95.7 | 97 | 97.9 | 103 | 101 | 99.1 | > 10 | > 10 | > 10 | > 10 | > 10 | 0 | 0 | 0 | 0 | 0
CS(=O)(=O)Nc1ccc2oc3c(OC(F)F)ccc(C(=O)Nc4c(Cl)cncc4Cl)c3c2c1 [oglemilast] | 108 | 101 | 92.2 | 103 | 90.1 | 91 | 88.4 | 100 | 92.7 | 81.1 | 96.1 | 87.9 | 93.3 | 86 | 89.8 | 97.6 | 104 | 97 | 101 | 94.2 | 102 | 95.9 | 96.2 | 90.5 | 99.8 | > 10 | > 10 | > 10 | > 10 | > 10 | 0 | 1.3 | 0.6 | 0 | 0
Oc1cc(O)cc(/C=C/c2ccc(O)c(O)c2)c1 [piceatannol] | 90.2 | 93.7 | 101 | 96.1 | 86 | 95.3 | 93.5 | 90.4 | 99.9 | 88.9 | 98.8 | 87.3 | 105 | 92.7 | 97.7 | 97.5 | 98.2 | 94.2 | 100 | 96.1 | 103 | 94.1 | 94.8 | 92.1 | 101 | > 10 | > 10 | > 10 | > 10 | > 10 | 0.5 | 0 | 0 | 0 | 0
CCCCCCCCCC(=O)OCCN1CCN(CCCN2c3ccccc3Sc3ccc(C(F)(F)F)cc32)CC1 [fluphenazine-decanoate] | 111 | 84.8 | 96.3 | 98 | 92.1 | 101 | 95.8 | 98.5 | 107 | 91.6 | 95.5 | 97.4 | 96.9 | 93.7 | 108 | 97.2 | 100 | 99 | 100 | 96.9 | 104 | 105 | 96.3 | 106 | 105 | > 10 | > 10 | > 10 | > 10 | > 10 | 0 | 0 | 0 | 0 | 0
CCCC(=O)O [sodium-butyrate] | 104 | 95.8 | 100 | 99.9 | 98.9 | 103 | 95.8 | 96.2 | 97.7 | 102 | 109 | 91.8 | 102 | 91.2 | 99.1 | 104 | 102 | 98.6 | 106 | 96.5 | 109 | 101 | 102 | 99.4 | 100 | > 10 | > 10 | > 10 | > 10 | > 10 | 0 | 0 | 0 | 0 | 0
Cc1ccc(S(=O)(=O)Cc2nc(-c3ccc(C(=O)NCc4cccnc4)cc3)oc2C)cc1 | 104 | 107 | 11.2 | 5.4 | 16.6 | 105 | 102 | 8.7 | 5.3 | 5.3 | 101 | 77.3 | 23.5 | 12.2 | 9.5 | 96.4 | 108 | 1.1 | -0.1 | -0.2 | 106 | 110 | 2.3 | 1.5 | 2.6 | 0.0408 | 0.036 | 0.0249 | 0.0364 | 0.0372 | 27.6 | 28.3 | 28.2 | 29.7 | 29.2
NC(N)=O [urea] | 96.4 | 93.4 | 102 | 94.5 | 108 | 100 | 92.1 | 93.8 | 114 | 89.3 | 82.1 | 86.1 | 90.2 | 86.5 | 94.2 | 95.8 | 97.9 | 98.6 | 101 | 97.2 | 97.8 | 100 | 104 | 92.3 | 103 | > 10 | > 10 | > 10 | > 10 | > 10 | 0 | 0 | 0 | 0 | 0
COc1ccc2c(OCc3nnc4ccc(-c5ccccc5)nn34)ccnc2c1 [AMG-208] | 99.8 | 95.9 | 104 | 100 | 91 | 108 | 99.8 | 97.3 | 92.2 | 97 | 99.4 | 99.9 | 101 | 97 | 104 | 104 | 95.5 | 102 | 103 | 99 | 95.6 | 92.1 | 93.9 | 104 | 91.2 | > 10 | > 10 | > 10 | > 10 | > 10 | 0 | 0 | 0 | 0 | 0
O=C1O[C@H]([C@@H](O)CO)C(O)=C1O [ASCORBIC ACID] | 103 | 95.9 | 100 | 100 | 98.4 | 105 | 95.5 | 110 | 96.3 | 108 | 99.6 | 98.3 | 108 | 93.4 | 101 | 109 | 98.8 | 99.8 | 100 | 102 | 99.7 | 112 | 106 | 103 | 103 | > 10 | > 10 | > 10 | > 10 | > 10 | 0 | 0 | 0 | 0 | 0
